Laboratory results reported in the supplement of paper PMC10307832.

Tests used:
Assay in all cases: relative viability (nuclei count vs DMSO), 5 days (fraction); higher = more cells survive
Vorinostat + Trametinib = compound: O=C(CCCCCCC(=O)Nc1ccccc1)NO [Vorinostat] + CC(=O)Nc1cccc(-n2c(=O)n(C3CC3)c(=O)c3c(Nc4ccc(I)cc4F)n(C)c(=O)c(C)c32)c1 [Trametinib] (partner 0.02 µM)
Procedure, shortened: (§1)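 Relative viability divides the nuclei count in treated wells by that in vehicle wells. Lung cancer cell lines were seeded in 1536-well plates, dosed by pin tool the next day, and fixed and stained after 5 days in one step with final 0.05% Triton X-100, 1% formaldehyde and 1 ug/ml Hoechst. Dosing was a single drug or a fixed anchor-drug dose plus five library-drug doses (not always all listed) in √10 steps, and values are medians of duplicate plates imaged at 4×.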

Vorinostat + Foretinib = compound: O=C(CCCCCCC(=O)Nc1ccccc1)NO [Vorinostat] + COc1cc2c(Oc3ccc(NC(=O)C4(C(=O)Nc5ccc(F)cc5)CC4)cc3F)ccnc2cc1OCCCN1CCOCC1 [Foretinib] (partner 0.25 µM)
Procedure, shortened: as §1

Vorinostat + Lapatinib = compound: O=C(CCCCCCC(=O)Nc1ccccc1)NO [Vorinostat] + CS(=O)(=O)CCNCc1ccc(-c2ccc3ncnc(Nc4ccc(OCc5cccc(F)c5)c(Cl)c4)c3c2)o1 [Lapatinib] (partner 2 µM)
Procedure, shortened: as §1

Vorinostat + Linsitinib = compound: O=C(CCCCCCC(=O)Nc1ccccc1)NO [Vorinostat] + C[C@]1(O)C[C@@H](c2nc(-c3ccc4ccc(-c5ccccc5)nc4c3)c3c(N)nccn32)C1 [Linsitinib] (partner 1 µM)
Procedure, shortened: as §1

Vorinostat + Dasatinib = compound: O=C(CCCCCCC(=O)Nc1ccccc1)NO [Vorinostat] + Cc1nc(Nc2ncc(C(=O)Nc3c(C)cccc3Cl)s2)cc(N2CCN(CCO)CC2)n1 [Dasatinib] (partner 0.075 µM)
Procedure, shortened: as §1

Work on 201T yielded a relative viability (Vorinostat + Trametinib; first compound 0.253 µM) of 0.734, a relative viability (Vorinostat + Trametinib; first compound 0.8 µM) of 0.735 and a relative viability (Vorinostat + Trametinib; first compound 2.53 µM) of 0.69. It also gave a relative viability (Vorinostat + Trametinib; first compound 8 µM) of 0.267, a relative viability (Vorinostat + Foretinib; first compound 0.253 µM) of 1.25 and a relative viability (Vorinostat + Foretinib; first compound 0.8 µM) of 0.983. For the same cell line, the relative viability (Vorinostat + Foretinib; first compound 2.53 µM) was 0.511, the relative viability (Vorinostat + Foretinib; first compound 8 µM) was 0.165 and the relative viability (Vorinostat + Lapatinib; first compound 0.253 µM) was 1.05. For the same cell line, the relative viability (Vorinostat + Lapatinib; first compound 0.8 µM) was 0.954, the relative viability (Vorinostat + Lapatinib; first compound 2.53 µM) was 0.929 and the relative viability (Vorinostat + Lapatinib; first compound 8 µM) was 0.567. The relative viability (Vorinostat + Linsitinib; first compound 0.253 µM) was 1.04, the relative viability (Vorinostat + Linsitinib; first compound 0.8 µM) was 0.932 and the relative viability (Vorinostat + Linsitinib; first compound 2.53 µM) was 0.825. For the same cell line, the relative viability (Vorinostat + Linsitinib; first compound 8 µM) was 0.363, the relative viability (Vorinostat + Dasatinib; first compound 0.253 µM) was 0.578 and the relative viability (Vorinostat + Dasatinib; first compound 0.8 µM) was 0.503. For the same cell line, the relative viability (Vorinostat + Dasatinib; first compound 2.53 µM) was 0.381 and the relative viability (Vorinostat + Dasatinib; first compound 8 µM) was 0.221.

NCI-H1944 was tested, and the relative viability (Vorinostat + Trametinib; first compound 0.253 µM) was 0.481, the relative viability (Vorinostat + Trametinib; first compound 0.8 µM) was 0.424 and the relative viability (Vorinostat + Trametinib; first compound 2.53 µM) was 0.292. It also gave a relative viability (Vorinostat + Trametinib; first compound 8 µM) of 0.0999, a relative viability (Vorinostat + Foretinib; first compound 0.253 µM) of 0.832 and a relative viability (Vorinostat + Foretinib; first compound 0.8 µM) of 0.594. For the same cell line, the relative viability (Vorinostat + Foretinib; first compound 2.53 µM) was 0.321, the relative viability (Vorinostat + Foretinib; first compound 8 µM) was 0.142 and the relative viability (Vorinostat + Lapatinib; first compound 0.253 µM) was 0.77. The relative viability (Vorinostat + Lapatinib; first compound 0.8 µM) was 0.572, the relative viability (Vorinostat + Lapatinib; first compound 2.53 µM) was 0.43 and the relative viability (Vorinostat + Lapatinib; first compound 8 µM) was 0.236. For the same cell line, the relative viability (Vorinostat + Linsitinib; first compound 0.253 µM) was 1.21, the relative viability (Vorinostat + Linsitinib; first compound 0.8 µM) was 0.948 and the relative viability (Vorinostat + Linsitinib; first compound 2.53 µM) was 0.697. It also gave a relative viability (Vorinostat + Linsitinib; first compound 8 µM) of 0.207, a relative viability (Vorinostat + Dasatinib; first compound 0.253 µM) of 0.204 and a relative viability (Vorinostat + Dasatinib; first compound 0.8 µM) of 0.184. For the same cell line, the relative viability (Vorinostat + Dasatinib; first compound 2.53 µM) was 0.178 and the relative viability (Vorinostat + Dasatinib; first compound 8 µM) was 0.174.

NCI-H2228 was tested, and the relative viability (Vorinostat + Trametinib; first compound 0.253 µM) was 0.67, the relative viability (Vorinostat + Trametinib; first compound 0.8 µM) was 0.464 and the relative viability (Vorinostat + Trametinib; first compound 2.53 µM) was 0.219. It also gave a relative viability (Vorinostat + Trametinib; first compound 8 µM) of 0.101, a relative viability (Vorinostat + Foretinib; first compound 0.253 µM) of 0.917 and a relative viability (Vorinostat + Foretinib; first compound 0.8 µM) of 0.537. The relative viability (Vorinostat + Foretinib; first compound 2.53 µM) was 0.311, the relative viability (Vorinostat + Foretinib; first compound 8 µM) was 0.0906 and the relative viability (Vorinostat + Lapatinib; first compound 0.253 µM) was 1.34. The relative viability (Vorinostat + Lapatinib; first compound 0.8 µM) was 0.519, the relative viability (Vorinostat + Lapatinib; first compound 2.53 µM) was 0.261 and the relative viability (Vorinostat + Lapatinib; first compound 8 µM) was 0.122. It also gave a relative viability (Vorinostat + Linsitinib; first compound 0.253 µM) of 0.805, a relative viability (Vorinostat + Linsitinib; first compound 0.8 µM) of 0.542 and a relative viability (Vorinostat + Linsitinib; first compound 2.53 µM) of 0.425. For the same cell line, the relative viability (Vorinostat + Linsitinib; first compound 8 µM) was 0.0918, the relative viability (Vorinostat + Dasatinib; first compound 0.253 µM) was 0.39 and the relative viability (Vorinostat + Dasatinib; first compound 0.8 µM) was 0.323. It also gave a relative viability (Vorinostat + Dasatinib; first compound 2.53 µM) of 0.127 and a relative viability (Vorinostat + Dasatinib; first compound 8 µM) of 0.0817.

In the case of NCI-H1395, the relative viability (Vorinostat + Trametinib; first compound 0.253 µM) is reported as 1.23, the relative viability (Vorinostat + Trametinib; first compound 0.8 µM) is reported as 0.964 and the relative viability (Vorinostat + Trametinib; first compound 2.53 µM) is reported as 0.777. The relative viability (Vorinostat + Trametinib; first compound 8 µM) was 0.412, the relative viability (Vorinostat + Foretinib; first compound 0.253 µM) was 1.09 and the relative viability (Vorinostat + Foretinib; first compound 0.8 µM) was 1.09. It also gave a relative viability (Vorinostat + Foretinib; first compound 2.53 µM) of 0.822, a relative viability (Vorinostat + Foretinib; first compound 8 µM) of 0.427 and a relative viability (Vorinostat + Lapatinib; first compound 0.253 µM) of 1.26. It also gave a relative viability (Vorinostat + Lapatinib; first compound 0.8 µM) of 0.906, a relative viability (Vorinostat + Lapatinib; first compound 2.53 µM) of 0.671 and a relative viability (Vorinostat + Lapatinib; first compound 8 µM) of 0.371. It also gave a relative viability (Vorinostat + Linsitinib; first compound 0.253 µM) of 1.31, a relative viability (Vorinostat + Linsitinib; first compound 0.8 µM) of 1.22 and a relative viability (Vorinostat + Linsitinib; first compound 2.53 µM) of 0.725. The relative viability (Vorinostat + Linsitinib; first compound 8 µM) was 0.344, the relative viability (Vorinostat + Dasatinib; first compound 0.253 µM) was 0.395 and the relative viability (Vorinostat + Dasatinib; first compound 0.8 µM) was 0.434. For the same cell line, the relative viability (Vorinostat + Dasatinib; first compound 2.53 µM) was 0.365 and the relative viability (Vorinostat + Dasatinib; first compound 8 µM) was 0.344.

Cell Line PC-3 [JPC-3] has a relative viability (Vorinostat + Trametinib; first compound 0.253 µM) of 0.695, a relative viability (Vorinostat + Trametinib; first compound 0.8 µM) of 0.644 and a relative viability (Vorinostat + Trametinib; first compound 2.53 µM) of 0.405. For the same cell line, the relative viability (Vorinostat + Trametinib; first compound 8 µM) was 0.348, the relative viability (Vorinostat + Foretinib; first compound 0.253 µM) was 1.02 and the relative viability (Vorinostat + Foretinib; first compound 0.8 µM) was 1.03. The relative viability (Vorinostat + Foretinib; first compound 2.53 µM) was 0.316, the relative viability (Vorinostat + Foretinib; first compound 8 µM) was 0.239 and the relative viability (Vorinostat + Lapatinib; first compound 0.253 µM) was 0.456. For the same cell line, the relative viability (Vorinostat + Lapatinib; first compound 0.8 µM) was 0.441, the relative viability (Vorinostat + Lapatinib; first compound 2.53 µM) was 0.326 and the relative viability (Vorinostat + Lapatinib; first compound 8 µM) was 0.252. For the same cell line, the relative viability (Vorinostat + Linsitinib; first compound 0.253 µM) was 0.886, the relative viability (Vorinostat + Linsitinib; first compound 0.8 µM) was 0.938 and the relative viability (Vorinostat + Linsitinib; first compound 2.53 µM) was 0.625. For the same cell line, the relative viability (Vorinostat + Linsitinib; first compound 8 µM) was 0.281, the relative viability (Vorinostat + Dasatinib; first compound 0.253 µM) was 1 and the relative viability (Vorinostat + Dasatinib; first compound 0.8 µM) was 1. For the same cell line, the relative viability (Vorinostat + Dasatinib; first compound 2.53 µM) was 0.593 and the relative viability (Vorinostat + Dasatinib; first compound 8 µM) was 0.227.

With LCLC-97TM1 the relative viability (Vorinostat + Trametinib; first compound 0.253 µM) was 0.238, the relative viability (Vorinostat + Trametinib; first compound 0.8 µM) was 0.207 and the relative viability (Vorinostat + Trametinib; first compound 2.53 µM) was 0.142. The relative viability (Vorinostat + Trametinib; first compound 8 µM) was 0.074, the relative viability (Vorinostat + Foretinib; first compound 0.253 µM) was 1.06 and the relative viability (Vorinostat + Foretinib; first compound 0.8 µM) was 0.957. It also gave a relative viability (Vorinostat + Foretinib; first compound 2.53 µM) of 0.394, a relative viability (Vorinostat + Foretinib; first compound 8 µM) of 0.153 and a relative viability (Vorinostat + Lapatinib; first compound 0.8 µM) of 0.784. For the same cell line, the relative viability (Vorinostat + Lapatinib; first compound 2.53 µM) was 1.49, the relative viability (Vorinostat + Lapatinib; first compound 8 µM) was 0.115 and the relative viability (Vorinostat + Linsitinib; first compound 0.8 µM) was 0.167. It also gave a relative viability (Vorinostat + Linsitinib; first compound 2.53 µM) of 0.144, a relative viability (Vorinostat + Linsitinib; first compound 8 µM) of 0.115 and a relative viability (Vorinostat + Dasatinib; first compound 0.253 µM) of 0.914. For the same cell line, the relative viability (Vorinostat + Dasatinib; first compound 0.8 µM) was 0.68, the relative viability (Vorinostat + Dasatinib; first compound 2.53 µM) was 0.365 and the relative viability (Vorinostat + Dasatinib; first compound 8 µM) was 0.226.

In the case of HOP-62, the relative viability (Vorinostat + Trametinib; first compound 0.253 µM) is reported as 0.509, the relative viability (Vorinostat + Trametinib; first compound 0.8 µM) is reported as 0.406 and the relative viability (Vorinostat + Trametinib; first compound 2.53 µM) is reported as 0.16. For the same cell line, the relative viability (Vorinostat + Trametinib; first compound 8 µM) was 0.0861, the relative viability (Vorinostat + Foretinib; first compound 0.253 µM) was 1.03 and the relative viability (Vorinostat + Foretinib; first compound 0.8 µM) was 1.1. The relative viability (Vorinostat + Foretinib; first compound 2.53 µM) was 0.365, the relative viability (Vorinostat + Foretinib; first compound 8 µM) was 0.122 and the relative viability (Vorinostat + Lapatinib; first compound 0.253 µM) was 1.25. The relative viability (Vorinostat + Lapatinib; first compound 0.8 µM) was 0.572, the relative viability (Vorinostat + Lapatinib; first compound 2.53 µM) was 0.516 and the relative viability (Vorinostat + Lapatinib; first compound 8 µM) was 0.0547. The relative viability (Vorinostat + Linsitinib; first compound 0.253 µM) was 1.17, the relative viability (Vorinostat + Linsitinib; first compound 0.8 µM) was 0.769 and the relative viability (Vorinostat + Linsitinib; first compound 2.53 µM) was 0.528. It also gave a relative viability (Vorinostat + Linsitinib; first compound 8 µM) of 0.0603, a relative viability (Vorinostat + Dasatinib; first compound 0.253 µM) of 0.888 and a relative viability (Vorinostat + Dasatinib; first compound 0.8 µM) of 0.501. It also gave a relative viability (Vorinostat + Dasatinib; first compound 2.53 µM) of 0.225 and a relative viability (Vorinostat + Dasatinib; first compound 8 µM) of 0.0813.

For LXF-289, the relative viability (Vorinostat + Trametinib; first compound 0.253 µM) was 0.709, the relative viability (Vorinostat + Trametinib; first compound 0.8 µM) was 0.639 and the relative viability (Vorinostat + Trametinib; first compound 2.53 µM) was 0.424. For the same cell line, the relative viability (Vorinostat + Trametinib; first compound 8 µM) was 0.0759, the relative viability (Vorinostat + Foretinib; first compound 0.253 µM) was 0.981 and the relative viability (Vorinostat + Foretinib; first compound 0.8 µM) was 0.97. For the same cell line, the relative viability (Vorinostat + Foretinib; first compound 2.53 µM) was 0.3, the relative viability (Vorinostat + Foretinib; first compound 8 µM) was 0.0942 and the relative viability (Vorinostat + Lapatinib; first compound 0.253 µM) was 0.985. It also gave a relative viability (Vorinostat + Lapatinib; first compound 0.8 µM) of 0.859, a relative viability (Vorinostat + Lapatinib; first compound 2.53 µM) of 0.468 and a relative viability (Vorinostat + Lapatinib; first compound 8 µM) of 0.116. For the same cell line, the relative viability (Vorinostat + Linsitinib; first compound 0.253 µM) was 1.03, the relative viability (Vorinostat + Linsitinib; first compound 0.8 µM) was 0.994 and the relative viability (Vorinostat + Linsitinib; first compound 2.53 µM) was 0.391. For the same cell line, the relative viability (Vorinostat + Linsitinib; first compound 8 µM) was 0.108, the relative viability (Vorinostat + Dasatinib; first compound 0.253 µM) was 0.316 and the relative viability (Vorinostat + Dasatinib; first compound 0.8 µM) was 0.347. It also gave a relative viability (Vorinostat + Dasatinib; first compound 2.53 µM) of 0.226 and a relative viability (Vorinostat + Dasatinib; first compound 8 µM) of 0.0398.
